# Test results published in patent publication US9969726B2, “Metabotropic glutamate receptor negative allosteric modulators (NAMS) and uses thereof” (Sanford-Burnham Medical Research Institute, priority 2014, dated 2018).
# Where two headings read alike, the source gives them in different places.
# How the values were obtained:
# rat mGlu2 receptor = rat mGlu2 receptor (Rattus norvegicus (Rat), UniProt P31421); assay: mGlu2 in vitro GIRK thallium flux assay; type: cell-based; settings: NAM, EC80 glutamate, HEK-293 GIRK cells
# Method: (§1) All cell culture reagents were purchased from Invitrogen Corp. (Carlsbad, Calif.) unless otherwise noted. Compound activity at the group II (mGlu2 and mGlu3) mGlus was assessed using thallium flux through GIRK channels. Briefly, cells were plated into 384-well, black-walled, clear-bottomed poly-D-lysine-coated plates at a density of 15,000 cells/20 μL/well in DMEM containing 10% dialyzed FBS, 20 mM HEPES, and 100 units/mL penicillin/streptomycin (assay media). Plated cells were incubated overnight at 37° C. in the presence of 5% CO2. […] Cells were incubated for 1 h at room temperature, and the dye exchanged to assay buffer using an ELX405, leaving 20 μL/well. Test compounds were diluted to 2 times their final desired concentration in assay buffer (0.3% DMSO final concentration). […] Cell plates and compound plates were loaded onto a kinetic imaging plate reader (FDSS 6000 or 7000; Hamamatsu Corporation, Bridgewater, N.J.). Appropriate baseline readings were taken (10 images at 1 Hz; excitation, 470±20 nm; emission, 540±30 nm) and test compounds were added in a 20 μL volume and incubated for either 2.5 min or 60 min as indicated before the addition of 10 μL of thallium buffer with or without agonist. After the addition of agonist, data were collected for approximately an additional 2.5 min. Data were analyzed using Excel (Microsoft Corp, Redmond, Wash.). The slope of the fluorescence increase beginning 5 s after thallium/agonist addition and ending 15 s after thallium/agonist addition was calculated, corrected to vehicle and maximal agonist control slope values, and plotted in using either XLfit (ID Business Solutions Ltd) or Prism software (GraphPad Software, San Diego, Calif.) to generate concentration-response curves. Potencies were calculated from fits using a four-point parameter logistic equation. For concentration-response curve experiments, compounds were serially diluted 1:3 into 10 point concentration response curves and were transferred to daughter plates using an Echo acoustic plate reformatter (Labcyte, Sunnyvale, Calif.). Test compounds were applied and followed by EC80 concentrations of glutamate.
# rat mGlu3 receptor = rat mGlu3 receptor (Rattus norvegicus (Rat), UniProt P31422); assay: mGlu3 in vitro GIRK thallium flux assay; type: cell-based; settings: NAM; 2.5 min compound incubation; EC80 glutamate; HEK-293 GIRK cells
# Method: as §1
# [1] = 2.5 min compound incubation, read-out: mGlu2 EC50 (μM) (2.5 min)
# [2] = mGlu2 EC50 (μM) (60 min), 60 min compound incubation
# [3] = read-out: mGlu2 EC50 (μM) (60 min), 60 min compound incubation
# rat mGlu2 receptor, sequence (P31421 19-872): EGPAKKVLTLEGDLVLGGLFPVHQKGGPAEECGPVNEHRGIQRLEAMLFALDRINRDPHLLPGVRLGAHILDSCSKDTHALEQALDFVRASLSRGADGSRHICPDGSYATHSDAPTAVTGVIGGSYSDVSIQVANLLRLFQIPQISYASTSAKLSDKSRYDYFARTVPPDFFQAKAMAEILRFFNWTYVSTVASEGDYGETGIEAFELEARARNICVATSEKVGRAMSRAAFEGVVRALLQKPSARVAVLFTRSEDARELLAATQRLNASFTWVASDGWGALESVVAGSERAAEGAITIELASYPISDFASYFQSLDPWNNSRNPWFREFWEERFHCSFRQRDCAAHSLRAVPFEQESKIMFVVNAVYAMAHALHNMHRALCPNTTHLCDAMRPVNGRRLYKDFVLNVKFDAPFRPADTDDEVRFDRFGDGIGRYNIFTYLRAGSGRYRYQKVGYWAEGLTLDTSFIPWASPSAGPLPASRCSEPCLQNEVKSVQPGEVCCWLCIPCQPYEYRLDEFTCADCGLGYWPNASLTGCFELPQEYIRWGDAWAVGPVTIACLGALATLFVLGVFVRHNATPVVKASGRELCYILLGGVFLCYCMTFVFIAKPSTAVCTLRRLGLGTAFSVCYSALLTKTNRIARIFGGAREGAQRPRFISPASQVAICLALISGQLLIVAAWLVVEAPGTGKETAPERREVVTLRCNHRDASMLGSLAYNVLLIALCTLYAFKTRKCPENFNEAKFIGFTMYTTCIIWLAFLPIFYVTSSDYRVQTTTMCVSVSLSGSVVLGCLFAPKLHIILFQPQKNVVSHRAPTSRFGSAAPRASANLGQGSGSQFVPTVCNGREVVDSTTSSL
# rat mGlu3 receptor, sequence (P31422 23-879): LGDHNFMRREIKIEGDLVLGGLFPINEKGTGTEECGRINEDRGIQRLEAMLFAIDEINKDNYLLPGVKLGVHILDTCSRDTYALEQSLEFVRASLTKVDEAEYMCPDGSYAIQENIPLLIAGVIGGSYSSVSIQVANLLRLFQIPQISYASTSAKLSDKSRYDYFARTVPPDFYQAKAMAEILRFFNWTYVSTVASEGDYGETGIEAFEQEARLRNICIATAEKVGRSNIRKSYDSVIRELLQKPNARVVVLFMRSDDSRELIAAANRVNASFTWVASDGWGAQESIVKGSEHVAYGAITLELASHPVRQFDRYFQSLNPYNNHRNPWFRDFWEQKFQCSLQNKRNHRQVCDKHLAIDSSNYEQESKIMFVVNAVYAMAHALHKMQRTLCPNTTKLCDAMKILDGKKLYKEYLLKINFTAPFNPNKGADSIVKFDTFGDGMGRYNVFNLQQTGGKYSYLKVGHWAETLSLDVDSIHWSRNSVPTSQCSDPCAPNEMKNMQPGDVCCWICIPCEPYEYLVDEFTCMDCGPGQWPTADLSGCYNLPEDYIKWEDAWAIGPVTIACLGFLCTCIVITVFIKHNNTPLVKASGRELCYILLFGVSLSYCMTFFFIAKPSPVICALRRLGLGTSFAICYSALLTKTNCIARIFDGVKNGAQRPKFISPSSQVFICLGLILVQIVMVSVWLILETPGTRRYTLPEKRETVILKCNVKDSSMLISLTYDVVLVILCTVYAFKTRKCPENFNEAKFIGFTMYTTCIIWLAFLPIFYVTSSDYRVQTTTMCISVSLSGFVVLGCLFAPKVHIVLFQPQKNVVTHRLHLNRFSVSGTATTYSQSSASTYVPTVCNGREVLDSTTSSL
Compound,EC50 (rat mGlu2 receptor; [1]),EC50 (rat mGlu2 receptor; [2]),EC50 (rat mGlu3 receptor),EC50 (rat mGlu2 receptor; [3])
"ON=Cc1cc(-c2cccc(-c3csc(-c4ccccc4)n3)c2)ccc1F [Example 20, 4-Fluoro-3′-(2-phenylthiazol-4-yl)biphenyl-3-carbaldehyde oxime]",> 30 µM,> 10 µM,> 30 µM,–
"O=C(O)c1ccc(-c2cccc(-c3csc(-c4ccccc4)n3)c2)cc1Cl [Example 21, 3-Chloro-3′-(2-phenylthiazol-4-yl)biphenyl-4-carboxylic Acid]",> 10 µM,> 10 µM,> 10 µM,–
"O=C(O)c1ccc(-c2cccc(-c3csc(-c4ccccc4)n3)c2)cc1 [Example 22, 3′-(2-Phenylthiazol-4-yl)biphenyl-4-carboxylic Acid]",> 30 µM,> 10 µM,> 30 µM,–
"COc1ccc(C(=O)O)cc1-c1cccc(-c2csc(-c3ccccc3)n2)c1 [Example 23, 6-Methoxy-3′-(2-phenylthiazol-4-yl)biphenyl-3-carboxylic Acid]",1.81 µM,1.35 µM,> 10 µM,–
"O=C(O)c1cc(-c2cccc(-c3csc(-c4ccccc4)n3)c2)ccc1Cl [Example 24, 4-Chloro-3′-(2-phenylthiazol-4-yl)biphenyl-3-carboxylic Acid]",0.57 µM,0.8 µM,0.79 µM,–
"O=C(O)c1ccccc1-c1cccc(-c2csc(-c3ccccc3)n2)c1 [Example 25, 3′-(2-Phenylthiazol-4-yl)biphenyl-2-carboxylic Acid]",> 10 µM,–,> 10 µM,> 10 µM
"O=C(O)c1ccc(-c2cccc(-c3csc(-c4ccccc4)n3)c2)c(Cl)c1 [Example 26, 2-Chloro-3′-(2-phenylthiazol-4-yl)biphenyl-4-carboxylic Acid]",> 30 µM,> 30 µM,> 10 µM,–
"O=C(O)c1cc(-c2csc(-c3ccccc3)n2)ccc1F [Example 27, 2-Fluoro-5-(2-phenylthiazol-4-yl)benzoic acid]",> 10 µM,> 30 µM,> 30 µM,–
"O=C(O)c1cccc(-c2cccc(-c3csc(-c4ccccc4)n3)c2)c1 [Example 28, 3′-(2-Phenylthiazol-4-yl)biphenyl-3-carboxylic Acid]",–,0.2 µM,> 10 µM,–
"COc1ccc(-c2nc(-c3cccc(-c4cccc(C(=O)O)c4)c3)cs2)cc1OC [Example 29, 3-{3-[2-(3,4-Dimethoxyphenyl)-1,3-thiazol-4-yl]phenyl}benzoic acid]",2.58 µM,1.1 µM,4.02 µM,–
O=C(O)c1cccc(-c2cccc(-c3csc(-c4cccc5ccccc45)n3)c2)c1 [Example 30],> 10 µM,> 10 µM,> 30 µM,–
"COc1ccc(-c2nc(-c3cccc(-c4cccc(C(=O)O)c4)c3)cs2)cc1 [Example 31, 3-{3-[2-(4-Methoxyphenyl)-1,3-thiazol-4-yl]phenyl}benzoic acid]",1.23 µM,0.67 µM,3.09 µM,–
"O=C(O)c1cccc(-c2cccc(-c3csc(-c4ccc5ccccc5c4)n3)c2)c1 [Example 32, 3-[3-(2-(2-Naphthyl)-1,3-thiazol-4-yl)phenyl]benzoic acid]",> 10 µM,4.98 µM,> 30 µM,–
"O=C(O)c1cccc(-c2cccc(-c3csc(-c4cccc(C(=O)O)c4)n3)c2)c1 [Example 33, 3-{4-[3-(3-Carboxyphenyl)phenyl]-1,3-thiazol-2-yl}benzoic acid]",4.83 µM,> 10 µM,> 10 µM,–
"O=C(O)c1cccc(-c2cccc(-c3csc(-c4ccc5c(c4)OCCO5)n3)c2)c1 [Example 34, 3-[3-(2-(2H,3H-benzo[e]1,4-dioxin-6-yl)-1,3-thiazol-4-yl)phenyl]benzoic acid]",> 10 µM,–,> 10 µM,0.28 µM
"O=C(O)c1cccc(-c2cccc(-c3csc(-c4ccc(Cl)nc4)n3)c2)c1 [Example 35, 3′-(2-(6-Chloropyridin-3-yl)thiazol-4-yl)biphenyl-3-carboxylic Acid]",3.83 µM,0.27 µM,> 10 µM,–
